Data from article PMC9414972, “α-Glucosidase and α-Amylase Inhibitory Potentials of Quinoline–1,3,4-oxadiazole Conjugates Bearing 1,2,3-Triazole with Antioxidant Activity, Kinetic Studies, and Computational Validation” (Pharmaceuticals, 2022).

Key:
[1] = target: T1, porcine pancreatic amylase (Sus scrofa, UniProt P00690); assay: α-Amylase inhibitory activity (starch/DNS); type: biochemical; conditions: porcine pancreatic amylase, starch, pH 6.9, 25 °C; read-out: IC50 α-Amylase
T1 construct: purchased Merck
T1 sequence (P00690 16-511): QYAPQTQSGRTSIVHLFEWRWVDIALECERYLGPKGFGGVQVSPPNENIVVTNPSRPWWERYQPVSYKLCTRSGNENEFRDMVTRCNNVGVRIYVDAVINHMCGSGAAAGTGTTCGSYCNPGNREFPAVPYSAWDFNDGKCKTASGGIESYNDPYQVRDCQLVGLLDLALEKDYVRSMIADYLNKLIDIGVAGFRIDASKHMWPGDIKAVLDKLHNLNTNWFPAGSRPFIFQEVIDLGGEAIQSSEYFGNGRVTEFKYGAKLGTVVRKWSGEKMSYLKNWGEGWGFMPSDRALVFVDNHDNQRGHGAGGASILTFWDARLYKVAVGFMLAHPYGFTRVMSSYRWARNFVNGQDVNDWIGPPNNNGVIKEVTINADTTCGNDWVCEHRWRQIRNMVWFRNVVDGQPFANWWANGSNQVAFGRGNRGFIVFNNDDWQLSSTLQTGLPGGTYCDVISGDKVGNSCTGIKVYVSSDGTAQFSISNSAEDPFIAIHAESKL
Experimental: α-Amylase inhibitory activity was determined according to Ibitoye et al. with slight modifications. […] The reaction in the mixture was terminated with a 1 mL dinitrosalicylate reagent before boiling for 10 min. The cooled mixture was diluted with 5 mL distilled water, and the absorbance was read at 540 nm. The inhibitory activity was calculated using the formula below: % Inhibition=1−Absorbance of compound/Absorbance of control×100

[2] = Ferric reducing antioxidant power (FRAP); conditions: ferric reducing antioxidant power
Experimental: FRAP is a ferric (Fe^3+) to ferrous (Fe^2+) ions reduction assay that measures a compound’s electron-donating capacity, i.e., the antioxidant’s reducing power.
The mixture was incubated at 50 °C for 20 min, followed by acidification with 100 μL trichloroacetic acid (10%). After centrifugation at 3500 rpm for 10 min, 200 μL of the supernatant was transferred into another test tube containing 200 μL of distilled water and 0.8 mL of FeCl3 (0.1%). Finally, the absorbance was read at 700 nm, and the total reductive antioxidant power was calculated thus: Ferric reducing antioxidant power (%)=Absorbance of compound/Absorbance of 500µM gallic acid×100

α-glucosidase [3] = target: T2, α-glucosidase (Saccharomyces cerevisiae, UniProt P38158); assay: biochemical; conditions: pNPG substrate, pH 6.8, 37 °C; read-out: IC50 α-Glucosidase
T2 construct: purchased Merck
T2 sequence (P38158 whole entry): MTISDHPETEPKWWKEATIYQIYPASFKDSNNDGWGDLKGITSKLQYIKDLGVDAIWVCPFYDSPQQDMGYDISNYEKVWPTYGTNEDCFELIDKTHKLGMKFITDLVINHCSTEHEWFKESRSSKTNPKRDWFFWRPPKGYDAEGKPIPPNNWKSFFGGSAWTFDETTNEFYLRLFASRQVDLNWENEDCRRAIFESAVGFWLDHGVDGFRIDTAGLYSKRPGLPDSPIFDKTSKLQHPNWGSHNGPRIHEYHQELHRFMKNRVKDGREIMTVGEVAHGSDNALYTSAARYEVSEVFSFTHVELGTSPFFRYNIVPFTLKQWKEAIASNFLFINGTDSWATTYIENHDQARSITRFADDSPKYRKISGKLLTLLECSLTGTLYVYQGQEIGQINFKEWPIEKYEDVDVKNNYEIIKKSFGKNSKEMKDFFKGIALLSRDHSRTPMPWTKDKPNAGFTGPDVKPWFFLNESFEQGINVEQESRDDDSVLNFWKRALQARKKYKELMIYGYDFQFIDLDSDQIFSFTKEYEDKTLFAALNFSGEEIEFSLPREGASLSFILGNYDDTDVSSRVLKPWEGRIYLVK
Experimental: The α-glucosidase inhibitory activity was evaluated using a previous method with slight modifications.

[4] = DPPH radical scavenging activity; conditions: DPPH radical scavenging, 30 min, 25 °C
Experimental: The DPPH assay is used conventionally to quantify a compound’s ability to trap free radicals.
The compounds were evaluated for their ability to scavenge stable DPPH radicals, using a modification of the method by Turkoglu et al..

[5] = Nitric oxide (NO) scavenging activity; conditions: nitric oxide radical scavenging, 37 °C, 2 h
Experimental: The screening of the present compound series for NO radical scavenging activity (Table 2) identified excellent NO scavengers.
The antioxidant capacity of the compounds to scavenge nitric oxide radicals was determined using a modified version of the protocol by Kurian et al.. Briefly, 250 μL of sodium nitroprusside (10 mM) prepared in sodium phosphate buffer (pH 7.4) was added to 500 μL of the compound solution (62.5–500 μM) or distilled water (control). The resulting solution was incubated at 37 °C for 2 h. Then, 250 μL of Griess reagent was added to the reaction mixture before the absorbance was measured at 546 nm. The nitric oxide scavenging activity of the compounds was calculated with the formula: Nitric oxide scavenging (%)=1−Absorbance of compound/Absorbance of control×100

α-glucosidase [6] = target: T2, α-glucosidase; assay: Mode of α-glucosidase inhibition (enzyme kinetics, Lineweaver–Burk); type: biochemical; conditions: Lineweaver–Burk plots; inhibitor 0, 75, 150, 300 µM; pNPG
Source text: Understanding a drug’s mode of inhibiting its target is crucial to improve the drug’s activity profile and target specificity. Although orthosteric inhibition, in which the ligand binds at the target’s active site, dominates among currently available drugs, allosteric inhibitors (i.e., drugs binding at regions […] the active site) are desirable due to their reduced vulnerability to active site mutation or to displacement through native substrate overload at the active site. Accordingly, the mode of α-glucosidase inhibition was investigated for promising compounds 4b, 4i, 4j, 4k, 4l, 12k, and 12m, using a time-dependent para-nitrophenyl-[…] (pNPG) assay; the results are presented as Lineweaver–Burk plots (Figure 4). […] Conceivably, this can result in decreased systemic glucose concentration thus alleviating postprandial hyperglycemia and its associated complications.
The mode of inhibition of α-glucosidase of the 4b, 4i, 4j, 4k, 4l, 12k, and 12m compounds was determined using the method described by Kazeem et al. 2013, with modifications. Briefly, 50 µL of the 4b, 4i, 4j, 4k, 4l, 12k, and 12m compounds at (0 µM, 75 µM, 150 µM and 300 µM) concentrations were preincubated with 100 µL of α-glucosidase solution for 10 min at 25 °C in one set of tubes. In another set of tubes, α-glucosidase was preincubated with 50 µL of phosphate buffer (pH 6.9). 25 µL of pNPG at increasing concentrations (0.125–4.0 mg/mL) was added to both sets of solution to start the reaction. Immediately, the absorbance of the resulting solution was monitored for 2 min in a spectrophotometer at 405 nm. The amount of 4-nitrophenol released was determined from a 4-nitrophenol standard curve and then converted to reaction velocities.

Row | SMILES | IC50 [1] [µM] | IC50 [2] [µM] | IC50 (α-glucosidase [3]) [µM] | IC50 [4] [µM] | IC50 [5] [µM] | mode of α-glucosidase inhibition (α-glucosidase [6]) | melting point [°C]
1 | BrCCCCCSc1nnc(COc2cccc3cccnc23)o1 [4i, 2-[(5-Bromopentyl)thio]-5-[(quinolin-8-yloxy)methyl]-1,3,4-oxadiazole] | > 500 | 22.9 | 15.8 | 54.9 | 198 | non-competitive | 
2 | Fc1ccc(CSc2nnc(COc3cccc4cccnc34)o2)cc1 [4k, 2-[(4-Fluorobenzyl)thio]-5-[(quinolin-8-yloxy)methyl]-1,3,4-oxadiazole] | > 500 | > 500 | 23.7 | 81.1 | > 500 | non-competitive | 106.9 to 109.4
3 | c1ccc(-n2cc(CSc3nnc(COc4cccc5cccnc45)o3)nn2)cc1 [12k, 2-{[(1-Phenyl-1H-1,2,3-triazol-4-yl)methyl]thio}-5-[(quinolin-8-yloxy)methyl]-1,3,4-oxadiazole] | > 500 | > 500 | 22.5 | 85.7 | > 500 | non-competitive | 122 to 128
4 | Cc1cccc(C)c1-n1cc(CSc2nnc(COc3cccc4cccnc34)o2)nn1 [12t, 2-{[(1-(2,6-Dimethylphenyl)-1H-1,2,3-triazol-4-yl)methyl]thio}-5-[(quinolin-8-yloxy)methyl]-1,3,4-oxadiazole] | > 500 | > 500 | 44.1 | 90 | > 500 |  | 110 to 116
5 | COc1ccc(-n2cc(CSc3nnc(COc4cccc5cccnc45)o3)nn2)cc1 [12q, 2-{[(1-(4-Methoxyphenyl)-1H-1,2,3-triazol-4-yl)methyl]thio}-5-[(quinolin-8-yloxy)methyl]-1,3,4-oxadiazole] | > 500 | > 500 | 62.1 | 98.5 | > 500 |  | 122 to 128
6 | O=[N+]([O-])c1ccc(-n2cc(CSc3nnc(COc4cccc5cccnc45)o3)nn2)cc1 [12o, 2-{[(1-(4-Nitrophenyl)-1H-1,2,3-triazol-4-yl)methyl]thio}-5-[(quinolin-8-yloxy)methyl]-1,3,4-oxadiazole] | > 500 | > 500 | 38.3 | 88.9 | > 500 |  | 150 to 156
7 | CCCCSc1nnc(COc2cccc3cccnc23)o1 [4c, 2-(Butylthio)-5-[(quinolin-8-yloxy)methyl]-1,3,4-oxadiazole] | > 500 | > 500 | 41.4 | 79 | > 500 |  | 88.3 to 93.5
8 | Clc1ccc(CSc2nnc(COc3cccc4cccnc34)o2)c(Cl)c1 [4t, 2-[(2,4-Dichlorobenzyl)thio]-5-[(quinolin-8-yloxy)methyl]-1,3,4-oxadiazole] | > 500 | > 500 | 27.7 | 94 | > 500 |  | 116.7 to 119.7
9 | Clc1cccc(Cl)c1-n1cc(CSc2nnc(COc3cccc4cccnc34)o2)nn1 [12s, 2-{[(1-(2,6-Dichlorophenyl)-1H-1,2,3-triazol-4-yl)methyl]thio}-5-[(quinolin-8-yloxy)methyl]-1,3,4-oxadiazole] | > 500 | > 500 | 38.8 | 84.5 | > 500 |  | 113 to 118
10 | Cc1ccc(-n2cc(CSc3nnc(COc4cccc5cccnc45)o3)nn2)cc1 [12p, 2-[(Quinolin-8-yloxy)methyl]-5-{[(1-(p-tolyl)-1h-1,2,3-triazol-4-yl)methyl]thio}-1,3,4-oxadiazole] | 495 | > 500 | 44.1 | 96 | > 500 |  | 78 to 80
11 | Fc1ccc(CSc2nnc(COc3cccc4cccnc34)o2)cc1F [4s, 2-[(3,4-Difluorobenzyl)thio]-5-[(quinolin-8-yloxy)methyl]-1,3,4-oxadiazole] | > 500 | > 500 | 35.4 | 87.2 | > 500 |  | 98.8 to 101.2
12 | CCCCCn1cc(CSc2nnc(COc3cccc4cccnc34)o2)nn1 [12a] | > 500 | > 500 | 35.2 | 90 | > 500 |  | 90 to 94
13 | Clc1cccc(Cn2cc(CSc3nnc(COc4cccc5cccnc45)o3)nn2)c1 [12h, 2-{[(1-(3-Chlorobenzyl)-1H-1,2,3-triazol-4-yl)methyl]thio}-5-[(quinolin-8-yloxy)methyl]-1,3,4-oxadiazole] | > 500 | > 500 | 63.6 | 90.7 | > 500 |  | 78 to 84
14 | c1ccc(Cn2cc(CSc3nnc(COc4cccc5cccnc45)o3)nn2)cc1 [12c, 2-{[(1-Benzyl-1H-1,2,3-triazol-4-yl)methyl]thio}-5-[(quinolin-8-yloxy)methyl]-1,3,4-oxadiazole] | > 500 | > 500 | 46.9 | 80.2 | > 500 |  | 68 to 71
15 | CCCSc1nnc(COc2cccc3cccnc23)o1 [4b, 2-(Propylthio)-5-[(quinolin-8-yloxy)methyl]-1,3,4-oxadiazole] | > 500 | > 500 | 24.9 | 78.2 | > 500 | non-competitive | 
16 | Clc1ccc(Cn2cc(CSc3nnc(COc4cccc5cccnc45)o3)nn2)cc1 [12d, 2-{[(1-(4-Chlorobenzyl)-1H-1,2,3-triazol-4-yl)methyl]thio}-5-[(quinolin-8-yloxy)methyl]-1,3,4-oxadiazole] | > 500 | > 500 | 38.1 | 80.4 | > 500 |  | 92 to 96
17 | O=[N+]([O-])c1ccc(CSc2nnc(COc3cccc4cccnc34)o2)cc1 [4n, 2-[(4-Nitrobenzyl)thio]-5-[(quinolin-8-yloxy)methyl]-1,3,4-oxadiazole] | > 500 | > 500 | 32.8 | 77.2 | > 500 |  | 156.6 to 160.1
